Article PMC12615753, “Glutathione as a taste modulator: molecular mechanisms of interaction with umami and sweet taste receptors” (Food Chemistry: Molecular Sciences, 2025)
pEC50: −log10 of the molar value.

Biological target: T1, hTAS1R1 D147A/rTAS1R3 (UniProt Q7RTX1+Q923K1, D147A)
T1 construct: UniProtKB number Q7RTX1–1); The cDNA coding region of rTAS1R3 was synthesized with optimized-codon usage for human expression; expressed in transfected cells; host or cells: HEK293T/17
T1 sequence (Q7RTX1 21-841 D147A): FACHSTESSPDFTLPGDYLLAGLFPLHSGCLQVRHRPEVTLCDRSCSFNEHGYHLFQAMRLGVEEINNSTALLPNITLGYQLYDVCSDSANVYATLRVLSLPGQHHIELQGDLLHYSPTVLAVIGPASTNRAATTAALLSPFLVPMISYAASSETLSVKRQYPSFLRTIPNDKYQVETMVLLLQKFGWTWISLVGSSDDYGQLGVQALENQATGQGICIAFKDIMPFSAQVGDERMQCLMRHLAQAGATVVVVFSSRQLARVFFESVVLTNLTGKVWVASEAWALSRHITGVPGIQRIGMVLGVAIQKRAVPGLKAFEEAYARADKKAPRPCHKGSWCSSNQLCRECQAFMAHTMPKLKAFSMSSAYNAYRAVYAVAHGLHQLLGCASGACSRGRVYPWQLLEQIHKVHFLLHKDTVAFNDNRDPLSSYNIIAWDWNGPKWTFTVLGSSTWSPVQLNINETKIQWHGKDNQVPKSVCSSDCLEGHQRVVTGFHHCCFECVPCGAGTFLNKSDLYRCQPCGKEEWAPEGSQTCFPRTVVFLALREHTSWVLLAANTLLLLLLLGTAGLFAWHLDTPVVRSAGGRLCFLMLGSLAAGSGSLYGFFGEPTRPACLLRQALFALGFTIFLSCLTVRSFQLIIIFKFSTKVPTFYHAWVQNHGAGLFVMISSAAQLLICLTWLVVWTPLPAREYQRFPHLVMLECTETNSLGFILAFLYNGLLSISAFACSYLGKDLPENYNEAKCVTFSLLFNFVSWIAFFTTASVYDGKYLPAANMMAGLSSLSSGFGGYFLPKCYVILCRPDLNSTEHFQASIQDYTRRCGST
T1 sequence (Q923K1 21-858): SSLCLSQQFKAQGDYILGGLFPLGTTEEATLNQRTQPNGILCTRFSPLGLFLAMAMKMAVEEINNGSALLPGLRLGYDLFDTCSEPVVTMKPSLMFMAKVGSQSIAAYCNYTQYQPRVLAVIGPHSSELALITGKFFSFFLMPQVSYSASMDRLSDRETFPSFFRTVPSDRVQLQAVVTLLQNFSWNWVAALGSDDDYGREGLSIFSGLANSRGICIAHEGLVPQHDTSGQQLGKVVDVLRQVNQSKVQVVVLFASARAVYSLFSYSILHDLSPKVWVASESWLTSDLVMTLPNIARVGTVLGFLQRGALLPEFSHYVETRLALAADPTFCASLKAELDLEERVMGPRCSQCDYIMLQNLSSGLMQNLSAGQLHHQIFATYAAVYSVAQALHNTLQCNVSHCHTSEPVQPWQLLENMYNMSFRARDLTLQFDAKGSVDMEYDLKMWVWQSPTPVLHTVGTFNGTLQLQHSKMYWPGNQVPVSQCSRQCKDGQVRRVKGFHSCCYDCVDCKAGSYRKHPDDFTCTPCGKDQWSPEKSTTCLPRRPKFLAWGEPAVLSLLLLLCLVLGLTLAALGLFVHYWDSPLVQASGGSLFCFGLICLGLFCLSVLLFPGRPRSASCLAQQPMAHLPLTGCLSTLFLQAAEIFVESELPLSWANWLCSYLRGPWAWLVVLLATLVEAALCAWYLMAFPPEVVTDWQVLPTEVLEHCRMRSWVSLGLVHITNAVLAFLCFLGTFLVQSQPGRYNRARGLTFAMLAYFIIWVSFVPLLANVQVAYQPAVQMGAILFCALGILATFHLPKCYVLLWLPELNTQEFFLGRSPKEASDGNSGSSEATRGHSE
Assay: Calcium assay, hTAS1R1 mutant co-expressed with rTAS1R3
Type: cell-based, human, rat

| Structure (SMILES) | response to the agonist alone, vs WT (D147A) | pEC50 | effect of the added compound (1 mM) on the response to L-Glu (D147A) |
| --- | --- | --- | --- |
| CCCC(CCC)NC(=O)c1ccc2c(c1)OCO2 [S807, N-(heptan-4-yl)benzo[d][1,3]dioxole-5-carboxamide, reference compound] | strongly affected | – | – |
| N[C@@H](CCC(=O)N[C@@H](CS)C(=O)NCC(=O)O)C(=O)O [GSH, γ-L-glutamyl-L-cysteinyl-glycine] | fully abolished | < 1.52 | did not affect |
